Laboratory results as given in patent publication US20100168176A1, “NOVEL COMPOUNDS, PHARMACEUTICAL COMPOSITIONS CONTAINING SAME, AND METHODS OF USE FOR SAME” (FASGEN LLC, priority 2006, published 2010).
≈ marks a conversion by molar mass, not a printed value.

Experiments:
[1] = tested on: MCF-7 human breast cancer cells; test: [14C]acetate incorporation into total lipids; type: cell-based; settings: MCF7
Description: Measurement of [^14 C]acetate Incorporation into Total Lipids and Determination of IC50 of Compounds
This assay measures the incorporation of [^14C]acetate into total lipids and is a measure of fatty acid synthesis pathway activity in vitro. It is utilized to measure inhibition of fatty acid synthesis in vitro.
MCF-7 human breast cancer cells cultured as above, are plated at 5×10^4 cells per well in 24-well plates. Following overnight incubation, the compounds to be tested, solubilized in DMSO, are added at 5, 10, and 20 μg/ml in triplicate, with lower concentrations tested if necessary. DMSO is added to triplicate wells for a vehicle control. C75 is run at 5 and 10 μg/ml in triplicate as positive controls. After 4 hours of incubation, 0.25 μCi of [^14C]acetate (10 μl volume) is added to each well.
After 2 hours of additional incubation, medium is aspirated from the wells and 800 μl of chloroform:methanol (2:1) and 700 μl of 4 mM MgCl2 is added to each well. Contents of each well are transferred to 1.5 Eppendorf tubes, and spun at full-speed for 2 minutes in a high-speed Eppendorf Microcentrifuge 5415D. After removal of the aqueous (upper) layer, an additional 700 μl of chloroform:methanol (2:1) and 500 μl of 4 mM MgCl2 are added to each tube and then centrifuged for 1 minutes as above. The aqueous layer is removed with a Pasteur pipette and discarded. An additional 400 μl of chloroform:methanol (2:1) and 200 μl of 4 mM MgCl2 are added to each tube, then centrifuged and aqueous layer is discarded. The lower (organic) phase is transferred into a scintillation vial and dried at 40° C. under N2 gas. Once dried, 3 ml of scintillant (APB #NBC5104) is added and vials are counted for ^14C. The Beckman Scintillation counter calculates the average cpm values for triplicates.
The IC50 for the compounds is defined as the concentration of drug leading to a 50% reduction in [^14C]acetate incorporation into lipids compared to controls. This is determined by plotting the average cpm for each inhibitor concentration tested, performing linear regression and computing the best-fit line, r^2 values, and 95% confidence intervals. The average cpm values are computed by the Beckman scintillation counter (Model LS6500) for each compound concentration. Computation of linear regression, best-fit line, r^2, and 95% confidence intervals are calculated using Prism Version 3.0 (Graph Pad Software).

[2] = tested on: H; test: Crystal violet cell growth assay, H; type: cell-based; settings: read-out: Cr. Violet (IC50)
Description: Crystal Violet Cell Growth Assay
The crystal violet assay measure cell growth but not cytotoxicity. This assay employs crystal violet staining of fixed cells in 96-well plates with subsequent solubilization and measurement of OD490 on a spectrophotometer. The OD490 corresponds to cell growth per unit time measured. Cells are treated with the compounds of interest or vehicle controls and IC50 for each compound is computed.
To measure the cytotoxicity of specific compounds against cancer cells, 5×10^4 MCF-7 human breast cancer cells, obtained from the American Type Culture Collection are plated per well in 24 well plates in DMEM medium with 10% fetal bovine serum, penicillin, and streptomycin. Following overnight culture at 37° C. and 5% CO2, the compounds to be tested, dissolved in DMSO, are added to the wells in 1 μl volume at the following concentrations: 50, 40, 30, 20, and 10 μg/ml in triplicate. Additional concentrations are tested if required. 1 μl of DMSO is added to triplicate wells are the vehicle control. C75 is run at 10, and 5 μg/ml in triplicate as positive controls.
After 72 hours of incubation, cells are stained with 0.5 ml of Crystal Violet stain (0.5% in 25% methanol) in each well. After 10 minutes, wells are rinsed, air dried, and then solubilized with 0.5 ml 10% sodium dodecylsulfate with shaking for 2 hours. Following transfer of 100 μl from each well to a 96-well plate, plates are read at OD490 on a Molecular Devices SpectraMax Plus Spectrophotometer Average OD490 values are computed using SOFTmax Pro Software (Molecular Devices) and IC50 values are determined by linear regression analysis using Prism version 3.02 (Graph Pad Software, San Diego).

[3] = Weight loss screen in Balb/C mice; type: in vivo; settings: 60 mg/kg intraperitoneally
Description: Weight Loss Screen for Novel FAS Inhibitors
Balb/C mice (Jackson Labs) are utilized for the initial weight loss screening. Animals are housed in temperature and 12 hour day/night cycle rooms and fed mouse chow and water ad lib. Three mice are utilized for each compound tested with vehicle controls in triplicate per experiment. For the experiments, mice are housed separately for each compound tested three mice to a cage. Compounds are diluted in DMSO at 10 mg/ml and mice are injected intraperitoneally with 60 mg/kg in approximately 100 μl of DMSO or with vehicle alone. Mice are observed and weighed daily; average weights and standard errors are computed with Excel (Microsoft). The experiment continues until treated animals reach their pretreatment weights.

[4] = tested on: MCF-7 human breast cancer cells; test: XTT cytotoxicity assay, MCF-7 (M); type: cell-based; settings: (M) or no code, MCF-7, 72 hours; for IC50: Homo sapiens, MCF7
Description: The XTT assay is a non-radioactive alternative for the [^51Cr] release cytotoxicity assay. XTT is a tetrazolium salt that is reduced to a formazan dye only by metabolically active, viable cells. The reduction of XTT is measured spectrophotometrically as OD490-OD650.
To measure the cytotoxicity of specific compounds against cancer cells, 9×10^3 MCF-7 human breast cancer cells, obtained from the American Type Culture Collection are plated per well in 96 well plates in DMEM medium with 10% fetal bovine serum, insulin, penicillin, and streptomycin. Following overnight culture at 37° C. and 5% CO2, the compounds to be tested, dissolved in DMSO, are added to the wells in 1 μl volume at the following concentrations: 80, 40, 20, 10, 5, 2.5, 1.25, and 0.625 μg/ml in triplicate. Additional concentrations are tested if required. 1 μl of DMSO is added to triplicate wells are the vehicle control. C75 is run at 40, 20, 10, […], 10, and 5 in triplicate as positive controls.
After 72 hours of incubation, cells are incubated for 4 hours with the XTT reagent as per manufacturer's instructions (Cell Proliferation Kit II (XTT) Roche). Plates are read at OD490 and OD650 on a Molecular Devices SpectraMax Plus Spectrophotometer. Three wells containing the XTT reagent without cells serve as the plate blank. XTT data are reported as OD490-OD650. Averages and standard error of the mean are computed using SOFTmax Pro software ([…]).
The IC50 for the compounds is defined as the concentration of drug leading to a 50% reduction in OD400-OD650 compared to controls. The OD400-OD650 are computed by the SOFTmax PRO software (Molecular Devices) for each compound concentration. IC50 is calculated by linear regression, plotting the FAS activity as percent of control versus drug concentrations. Linear regression, best-fit line, r^2, and 95% confidence intervals are determined using Prism Version 3.0 (Graph Pad Software).

[5] = tested on: FAO; test: FAO SC 150 / FAO Max; settings: for FAO Max: at the concentration given under E18
[6] = tested on: OV; test: XTT cytotoxicity assay, OV; type: cell-based
[7] = biological target: rat liver acyl-CoA synthetase; settings: rat liver enzyme; read-out: 50% inhibition of rat liver acyl-CoA synthetase; cited from earlier work
[8] = tested on: Raji cells; settings: cited from earlier work
[9] = biological target: viral HIV protease (Human immunodeficiency virus type 1 group M subtype B, UniProt P04585); settings: cited from earlier work
[10] = tested on: Mycobacterium tuberculosis; settings: in vitro; cited from earlier work
[11] = biological target: T1, purified human FAS (Homo sapiens, UniProt P49327); test: FAS enzymatic activity (malonyl-CoA dependent NADPH oxidation, OD340); type: biochemical; settings: purified human FAS from ZR-75-1 cells
T1 construct: Human FAS was purified from cultured ZR-75-1 human breast cancer cells; endogenous in cells; host or cells: ZR-75-1 human breast cancer cells (ATCC); Purified by hypotonic lysis, PEG precipitations and Mono Q anion exchange
T1 sequence (P49327 whole entry): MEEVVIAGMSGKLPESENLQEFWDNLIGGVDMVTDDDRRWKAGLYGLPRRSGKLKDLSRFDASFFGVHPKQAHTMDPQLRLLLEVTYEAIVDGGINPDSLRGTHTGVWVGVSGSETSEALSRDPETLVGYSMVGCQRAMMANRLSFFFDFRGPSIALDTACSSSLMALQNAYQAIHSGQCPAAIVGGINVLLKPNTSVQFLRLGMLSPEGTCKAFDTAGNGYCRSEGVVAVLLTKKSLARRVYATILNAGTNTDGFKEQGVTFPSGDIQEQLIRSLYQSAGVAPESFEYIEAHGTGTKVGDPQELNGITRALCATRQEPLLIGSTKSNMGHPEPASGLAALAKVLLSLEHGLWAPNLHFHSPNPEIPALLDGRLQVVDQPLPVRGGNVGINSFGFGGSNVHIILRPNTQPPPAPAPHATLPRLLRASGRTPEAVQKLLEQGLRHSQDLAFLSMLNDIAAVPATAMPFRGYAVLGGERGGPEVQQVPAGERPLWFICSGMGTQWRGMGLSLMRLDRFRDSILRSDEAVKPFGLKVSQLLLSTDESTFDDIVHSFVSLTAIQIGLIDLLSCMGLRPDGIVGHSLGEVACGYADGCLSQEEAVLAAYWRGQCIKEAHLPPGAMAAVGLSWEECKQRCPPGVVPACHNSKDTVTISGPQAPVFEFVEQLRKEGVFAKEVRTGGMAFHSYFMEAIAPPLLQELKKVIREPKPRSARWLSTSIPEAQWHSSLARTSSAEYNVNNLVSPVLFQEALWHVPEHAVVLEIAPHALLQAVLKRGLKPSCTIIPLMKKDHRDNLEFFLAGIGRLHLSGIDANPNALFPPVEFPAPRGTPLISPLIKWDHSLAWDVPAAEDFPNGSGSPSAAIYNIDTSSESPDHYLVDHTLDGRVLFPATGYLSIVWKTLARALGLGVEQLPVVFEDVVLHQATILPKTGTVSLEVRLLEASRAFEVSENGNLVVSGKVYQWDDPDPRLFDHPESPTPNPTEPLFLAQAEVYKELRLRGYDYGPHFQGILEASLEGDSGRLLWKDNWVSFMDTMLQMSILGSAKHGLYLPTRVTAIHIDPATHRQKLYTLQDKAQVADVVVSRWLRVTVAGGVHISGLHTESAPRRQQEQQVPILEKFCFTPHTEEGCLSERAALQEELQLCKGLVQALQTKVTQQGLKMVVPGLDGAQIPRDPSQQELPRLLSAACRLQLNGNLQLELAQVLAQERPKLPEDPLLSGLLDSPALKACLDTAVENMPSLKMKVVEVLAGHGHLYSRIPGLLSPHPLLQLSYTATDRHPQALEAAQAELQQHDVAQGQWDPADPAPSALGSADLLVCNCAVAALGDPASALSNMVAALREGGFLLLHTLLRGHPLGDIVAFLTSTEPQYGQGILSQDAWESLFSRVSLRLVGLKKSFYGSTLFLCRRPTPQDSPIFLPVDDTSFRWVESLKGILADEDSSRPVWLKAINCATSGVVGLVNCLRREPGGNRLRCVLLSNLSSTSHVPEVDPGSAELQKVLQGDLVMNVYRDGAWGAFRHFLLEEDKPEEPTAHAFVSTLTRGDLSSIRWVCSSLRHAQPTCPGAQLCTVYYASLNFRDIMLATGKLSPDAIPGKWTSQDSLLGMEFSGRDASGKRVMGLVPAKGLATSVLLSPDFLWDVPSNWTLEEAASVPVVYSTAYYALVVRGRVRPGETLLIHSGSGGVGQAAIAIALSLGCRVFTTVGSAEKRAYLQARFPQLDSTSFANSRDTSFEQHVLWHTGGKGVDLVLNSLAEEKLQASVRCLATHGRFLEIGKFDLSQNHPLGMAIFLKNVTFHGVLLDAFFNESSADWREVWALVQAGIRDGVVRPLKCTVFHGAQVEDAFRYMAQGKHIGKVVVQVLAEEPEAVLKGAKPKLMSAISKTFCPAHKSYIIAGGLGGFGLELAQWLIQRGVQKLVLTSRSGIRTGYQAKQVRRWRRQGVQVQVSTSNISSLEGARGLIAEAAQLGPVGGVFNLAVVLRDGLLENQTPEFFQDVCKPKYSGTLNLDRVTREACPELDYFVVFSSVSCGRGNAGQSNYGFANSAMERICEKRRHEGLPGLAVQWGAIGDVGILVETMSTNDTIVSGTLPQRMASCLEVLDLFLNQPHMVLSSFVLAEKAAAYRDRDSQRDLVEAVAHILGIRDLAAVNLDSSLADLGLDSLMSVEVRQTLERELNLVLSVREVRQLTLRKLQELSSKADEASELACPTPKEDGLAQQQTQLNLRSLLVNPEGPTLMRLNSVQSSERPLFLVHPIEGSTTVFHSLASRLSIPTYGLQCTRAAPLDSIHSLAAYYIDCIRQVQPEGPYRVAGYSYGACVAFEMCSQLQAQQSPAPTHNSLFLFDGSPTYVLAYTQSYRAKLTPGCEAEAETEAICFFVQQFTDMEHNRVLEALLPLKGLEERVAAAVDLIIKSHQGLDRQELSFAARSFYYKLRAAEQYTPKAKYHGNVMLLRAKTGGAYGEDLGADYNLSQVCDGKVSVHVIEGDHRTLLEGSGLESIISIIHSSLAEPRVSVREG
Description: Purification of FAS from ZR-75-1 Human Breast Cancer Cells.
Human FAS was purified from cultured ZR-75-1 human breast cancer cells obtained from the American Type Culture Collection. The procedure, adapted from Linn et al., 1981, and Kuhajda et al., 1994, utilizes hypotonic lysis, successive polyethyleneglycol (PEG) precipitations, and anion exchange chromatography. ZR-75-1 cells are cultured at 37° C. with 5% CO2 in RPMI culture medium with 10% fetal bovine serum, penicillin and streptomycin.
Ten T150 flasks of confluent cells are lysed with 1.5 ml lysis buffer (20 mM Tris-HCl, pH 7.5, 1 mM EDTA, 0.1 mM phenylmethanesulfonyl fluoride (PMSF), 0.1% Igepal CA-630) and dounce homogenized on ice for 20 strokes. The lysate is centrifuged in JA-20 rotor (Beckman) at 20,000 rpm for 30 minutes at 4° C. and the supernatant is brought to 42 ml with lysis buffer. A solution of 50% PEG 8000 in lysis buffer is added slowly to the supernatant to a final concentration of 7.5%. After rocking for 60 minutes at 4° C., the solution is centrifuged in JA-20 rotor (Beckman) at 15,000 rpm for 30 minutes at 4° C. Solid PEG 8000 is then added to the supernatant to a final concentration of 15%. After the rocking and centrifugation is repeated as above, the pellet is resuspended overnight at 4° C. in 10 ml of Buffer A (20 mM K2HPO4, pH 7.4). […] FAS protein concentration is determined using the Coomassie Plus Protein Assay Reagent (Pierce) according to manufacturer's specifications using BSA as a standard. […]
FAS activity is measured by monitoring the malonyl-CoA dependent oxidation of NADPH spectrophotometrically at OD340 in 96-well plates (Dils et al and Arslanian et al, 1975). […]
The assay is performed on a Molecular Devices SpectraMax Plus Spectrophotometer. […] Using the kinetic protocol, the wells are blanked on duplicate wells containing 100 μl of 100 mM K2HPO4, pH 6.5 and the plate is read at OD340 at 10 sec intervals for 5 minutes to measure any malonyl-CoA independent oxidation of NADPH. […] The plate is read again as above with the kinetic protocol to measure the malonyl-CoA dependent NADPH oxidation. […]

Compound | IC50 [1] | IC50 [2] | IC50 [4] | FAO Max: concentration at which the maximum was seen [5] | FAO SC 150 [5] | FAO Max [5] | IC50 [6] | also measured
CCCCCCCCC1(C)SC(=O)C=C1OCC(=O)NNc1cc(C(F)(F)F)ccc1Cl (centres unmarked) [Compound 16, (5-Methyl-5-octyl-2-oxo-thiophen-4-yloxy)-acetic-acid-N′-[2-chloro-5-(trifluoromethyl)phenyl]-hydrazide] | 16.5 µg/mL (≈ 33.5 µM) | 5.8 µg/mL (≈ 11.8 µM) | 6 µg/mL (≈ 12.2 µM) | 6.25 µg/mL | Neg | 137% @ | 7.2 µg/mL (≈ 14.6 µM) | Weight Loss ([3]; day 3): 60 mg/kg: 1.7 % (day 3)
CCCC=CCC=CC=CC=NN=NO [Triacsin C, 1-hydroxy-3-(E, E, E-2′,4′,7′-undecatrienylidine) triazene] |  |  |  |  |  |  |  | IC50 [7]: 8.7 µM; growth inhibition in Raji cells at [8]: 1.0 µM
C/C=C/C/C=C/CCC(=O)[C@H]1O[C@H]1C(N)=O [cerulenin, (2S,3R)-2,3-epoxy-4-oxo-7,10 dodecadienoyl amide] |  |  |  |  |  |  |  | inhibition of viral HIV protease at [9]: 5 mg/mL; activity against Mycobacterium tuberculosis [10]: no activity was found
(5-Methyl-5-hexyl-2-oxo-thiophen-4-yloxy)-acetic-acid-M-(4-chlorophenyl)-hydrazide [Compound 21] |  |  |  | 0.024 μg/ml ug/ml | Neg | 104% at |  | XTT (IC50) [4]: 9.8 μg/ml (M) ug/ml; FAS (IC50) [11]: Neg; XTT (IC50) [6]: 11.2 µg/mL
CCCCCCCCC1(C)SC(=O)C=C1OCC(=O)NNc1ccc(C(F)(F)F)cc1 (centres unmarked) [Compound 12, (5-Methyl-5-octyl-2-oxo-thiophen-4-yloxy)-acetic-acid-N′-(4-trifluoromethylphenyl)-hydrazide] | 11.3 µg/mL (≈ 24.6 µM) | 4.8 µg/mL (≈ 10.5 µM) | 5.7 µg/mL (≈ 12.4 µM) | 1.56 μg/ml ug/ml | Neg | 118% at | 9.6 µg/mL (≈ 20.9 µM) | Weight Loss ([3]; day 2): 60 mg/kg: 2.7% (day 2)
